Tests used:
Assay type in all cases: cell-based
EGFR = EGFR kinase inhibitor treatment, with or without EGF: Kaiso expression levels and nuclear staining
Protocol: Next, steps were taken to determine if EGFR signaling was involved in increasing Kaiso levels and/or cytoplasmic to nuclear trans-localization of Kaiso. All three cell lines were treated with EGF (10 ng/ml) over increasing time intervals of 30 minutes, 1 hour, and 24 hours. […] To determine the specificity of EGFR activity on Kaiso expression levels, an EGFR specific kinase inhibitor, PD153035, was also utilized in the presence or absence of EGF treatment.

p120^ctn = assay: EGF stimulation: p120ctn tyrosine residues Y228, Y96, Y291; settings: after 24 hours, DU-145 and DU-145WT
Protocol: Previous reports have observed that p120^ctn has a specific kinase activity for EGFR on tyrosine residue Y228. Additionally, p120^ctn is a known binding partner for Kaiso. Therefore, experiments were conducted determine whether this was apparent in prostate cancer cell lines as well. Given that p120^ctn has multiple tyrosine residues, including Y228, Y96, Y291, located within the regulator domain, the effect of EGF stimulation on each of these residues was studied. […] It was observed by immunofluorescence that Y228 expression remained cytosolic after 24 hours of EGF treatment.

Kaiso [1] = assay: EGF treatment: Kaiso mRNA and protein levels by real-time RT-PCR and immunoblot
Protocol: Unless otherwise herein described, growth factors, such as recombinant human epidermal growth factor (“EGF”), were obtained commercially and was added to serum free media of DMEM and T-media with antibiotics.
Since EGFR over-expressing DU-145WT cells express higher levels of Kaiso than the original DU-145 cells, experiments were further conducted to determine if EGFR signaling would have a direct effect on Kaiso localization and/or expression in prostate cancer cells. As an initial experiment, a dose dependent treatment of EGF consisting of 10, 50 and 100 ng/ml was performed.

Kaiso [2] = assay: EGF treatment: Kaiso nuclear localization by immunofluorescence and subcellular fractionation; settings: EGF 10 ng/ml; from 30 minutes to 24 hour; immunofluorescence; DU-145, DU-145WT, PC-3
Protocol: Unless otherwise set forth herein, immunofluorescence studies comprised plating cells on a 4-chamber slide with 20000 cells. After treatment, they were then washed with PBS, fixed for 30 minutes with cold methanol at room temperature, incubated at room temperature with Lysis Buffer containing 0.1 M Tris, 0.15M NaCl, 0.01 M EGTA, 1% Triton and 1 mM PMSF, blocked for 30 mins in 5% BSA dissolved in PBS, treated with primary antibody (1:100) overnight in the cold room. Cells were stained for p120^ctn and Kaiso.
Next, steps were taken to determine if EGFR signaling was involved in increasing Kaiso levels and/or cytoplasmic to nuclear trans-localization of Kaiso. All three cell lines were treated with EGF (10 ng/ml) over increasing time intervals of 30 minutes, 1 hour, and 24 hours. […] A key finding within DU-145 cells that lack nuclear Kaiso expression was the observation of a predominant Kaiso nuclear staining. […] To determine the specificity of EGFR activity on Kaiso expression levels, an EGFR specific kinase inhibitor, PD153035, was also utilized in the presence or absence of EGF treatment.

Molecule | Kaiso expression levels (EGFR; 500 nM) | nuclear Kaiso staining (EGFR; DU-145 and PC-3 cells) | EGF induced increases in Kaiso levels (EGFR; pre-treatment before EGF, DU-145 and PC-3 cells) | expression of p120ctn Y228 (versus Y96 and Y291) (p120^ctn) | increase in Kaiso mRNA and protein levels (Kaiso [1]; EGF 10 ng/ml (lowest of 10, 50, 100 ng/ml), real-time RT-PCR and immunoblot) | Kaiso increases (Kaiso [1]; EGF 10 ng/ml, 24 hour period, EGFR over-expressing DU145WT cells) [fold] | Kaiso increases at RNA and protein levels (Kaiso [1]; EGF 10 ng/ml, over 24 hour period, DU-145 and PC-3 cells) | nuclear accumulation of Kaiso (Kaiso [2])
COc1cc2ncnc(Nc3cccc(Br)c3)c2cc1OC [PD153035] | significantly reduced | lack of nuclear Kaiso staining | completely blocked | – | – | – | – | –
EGF: recombinant human epidermal growth factor, obtained commercially | – | – | – | induced the specific increased expression of Y228 | At least a two-fold increase | 4 | incremental Kaiso increases | Visible nuclear accumulation of Kaiso

Source: patent US20140302515A1, “BIOMARKERS FOR BREAST CANCER PATIENTS” (TUSKEGEE UNIVERSITY, priority 2010, published 2014)
